Experimental data from patent US20010006969A1, “PYRIMIDINE NUCLEUS-CONTAINING COMPOUND AND A MEDICAMENT CONTAINING THE SAME FOR A BLOOD OXYGEN PARTIAL PRESSURE AMELIORATION, AND A METHOD FOR PREPARING THE SAME” (priority 1997, published 2001).

melting point [°C]	SMILES
163 to 164	C=CCNc1nc(NC(CO)CO)c2scc(C)c2n1 [Example 73, 2-Allylamino-4-(1,3-dihydroxypropan-2-yl)amino-7-methylthieno[3,2-d]pyrimidine]
106 to 107	C=CCNc1nc(NC(C)C)c2scc(C)c2n1 [Example 77, 2-Allylamino-4-isopropylamino-7-methylthieno[3,2-d] pyrimidine]
87 to 88	C=CCNc1nc(NCCOC)nc2c(C)csc12 [Example 85, 4-Allylamino-2-(2-methoxyethylamino)-7-methylthieno[3,2-d] pyrimidine]
74 to 75	C=CCNc1nc(NCCC)nc2c(C)csc12 [Example 86, 4-Allylamino-7-methyl-2-propylaminothieno[3,2-d] pyrimidine]
105 to 107	C=CCNc1nc(NNC(C)(C)C)c2scc(C)c2n1 [Example 89, 2-Allylamino-4-(2-t-butylhydrazino)-7-methylthieno[3,2-d] pyrimidine]
88 to 89	C=CCNc1nc(NC(=O)C(C)(C)C)c2scc(C)c2n1 [Example 90, 2-Allylamino-7-methyl-4-pivaloylaminothieno[3,2-d] pyrimidine]
152 to 153	C=CCNc1nc(NC(=O)NC2CCCCC2)c2scc(C)c2n1 [Example 93, 2-Allylamino-4-(cyclohexylcarbamoyl)amino-7-methylthieno[3,2-d]pyrimidine]
164 to 165	C=CCNC(=O)Nc1nc(NCC=C)nc2c(C)csc12 [Example 96, 2-Allylamino-4-(allylcarbamoyl)amino-7-methylthieno[3,2-d] pyrimidine]
141	C=CCNc1nc(NC(=O)NCCCC)c2scc(C)c2n1 [Example 97, 2-Allylamino-4-(butylcarbamoyl)amino-7-methylthieno[3,2-d] pyrimidine]
98 to 101	C=CCNc1nc(NC(=O)N2CCCC2)c2scc(C)c2n1 [Example 98, 2-Allylamino-7-methyl-4-(1-pyrrolidinylcarbonyl)aminothieno[3,2-d]pyrimidine]
95 to 96	C#CCNc1nc(NCC=C)nc2c(C)csc12 [Example 99, 2-Allylamino-7-methyl-4-(2-propynylamino)thieno[3,2-d] pyrimidine]
83	C=CCNc1nc(NCC(=C)C)c2scc(C)c2n1 [Example 100, 2-Allylamino-7-methyl-4-(2-methyl-2-propenylamino)thieno[3,2-d]pyrimidine]
114 to 115	C=CCNc1nc(NCC=C(C)C)c2scc(C)c2n1 [Example 101, 2-Allylamino-7-methyl-4-(3-methyl-2-butenylamino)thieno[3,2-d]pyrimidine]
82 to 84	C=CCNc1nc(NC/C=C/c2ccccc2)c2scc(C)c2n1 [Example 102, 2-Allylamino-4-(trans-cinnamylamino)-7-methylthieno[3,2-d] pyrimidine]
98 to 100	C=CCNc1nc(NCC=C)c2scc(-c3ccccc3)c2n1 [Example 110, 2,4-Diallylamino-7-phenylthieno[3,2-d]pyrimidine]
87 to 88	C=CCNc1nc(NCC=C)c2scc(Br)c2n1 [Example 111, 2,4-Diallylamino-7-bromothieno[3,2-d]pyrimidine]
95 to 96	C=CCNC(=O)CCNc1nc(NCC=C)nc2c(C)csc12 [Example 112, 2-Allylamino-4-[2-(allylcarbamoyl)ethylamino]-7-methylthieno[3,2-d]pyrimidine]
